What was measured:
Cathepsin K = target: T1, Cathepsin K (Homo sapiens, UniProt P43235); assay: Measurement of Cathepsin K inhibitory activity; type: biochemical; settings: Dixon plot, pH 5.5, 37° C.
T1 sequence (P43235 115-329): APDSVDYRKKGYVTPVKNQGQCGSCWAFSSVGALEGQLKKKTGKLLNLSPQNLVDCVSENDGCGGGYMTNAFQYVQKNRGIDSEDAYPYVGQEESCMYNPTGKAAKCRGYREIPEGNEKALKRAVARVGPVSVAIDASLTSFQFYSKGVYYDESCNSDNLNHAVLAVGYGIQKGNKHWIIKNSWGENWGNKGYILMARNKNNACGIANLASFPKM
Description: (i) Measurement of Cathepsin K Inhibitory Activity
65 μL of Cathepsin K enzyme reaction buffer (50 mmol/L of 2-(N-morpholino)ethanesulfonate, 2 mmol/L of ethylenediamine tetraacetate (EDTA) and 4 mmol/L of dithiothreitol (DTT) were mixed to adjust to pH 5.5), 5 μL of cysteine protease inhibitor solution of several concentrations, 20 μL of synthesized substrate (t-butyloxycarbonyl-L-alanyl-glycyl-L-prolyl-L-arginine-4-methyl-chromanyl-7-amide) solution of several concentrations and 10 μL of cathepsin K enzyme solution were mixed and the increase of fluorescence intensity when reacted at 37° C. was measured (λ ex (excitation wavelength)=355 nm, λ em (fluorescence wavelength)=460 nm). As to the substrate and the compound of the present invention, enzyme reactions were carried out in combination of several appropriate concentrations and Dixon plotting was prepared, to define the absolute value of X-coordinate of the intersection point of the graph as Ki value.

cathepsin S = cathepsin S (Homo sapiens, UniProt P25774); assay: Measurement of Cathepsin S inhibitory activity; type: biochemical; settings: pH 6.5, 37° C.
Chain of cathepsin S (P25774 115-331, species assumed): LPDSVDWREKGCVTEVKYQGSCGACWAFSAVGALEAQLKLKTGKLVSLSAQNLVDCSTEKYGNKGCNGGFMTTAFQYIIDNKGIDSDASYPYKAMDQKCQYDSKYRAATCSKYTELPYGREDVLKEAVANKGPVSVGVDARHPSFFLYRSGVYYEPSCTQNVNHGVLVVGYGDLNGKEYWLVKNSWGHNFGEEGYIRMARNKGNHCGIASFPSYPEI
Description: (iii) Measurement of Cathepsin S Inhibitory Activity
10 μL of synthesized substrate (carbobenzoxy-L-leucyl-L-leucyl-L-arguinine-4-methyl-chromanyl-7-amide) solution and 5 μL of cysteine protease inhibitor solution of several concentrations, 75)L of cathepsin S enzyme reaction buffer (100 mmol/L of sodium phosphate, 2 mmol/L of EDTA, 2 mmol/L of DTT were mixed to adjust to pH 6.5) and 10 μL of cathepsin S enzyme solution were mixed and the increase of fluorescence intensity was measured (λ ex(excitation wavelength)=355 nm, λ em (fluorescence wavelength)=460 nm) when reacted at 37° C.

| Ki (Cathepsin K) | inhibition at 1 µM (cathepsin S) | SMILES |
| --- | --- | --- |
| 21 nM |  | CC(C)C[C@H](NC(=O)[C@H](CC(C)C)NC(=O)OCc1ccccc1)C(=O)Cn1nnc(-c2c(F)c(F)c(F)c(F)c2F)n1 [example 1(40), 2(S)-N-[3(S)-1-(5-(perfluorophenyl)tetrazol-2-yl)-2-oxo-5-methyl-3-hexyl]-2-benzyloxycarbonylamino-4-methylpentanamide] |
|  | 90% | CC(C)C[C@H](NC(=O)[C@H](CC(C)C)NC(=O)OCc1ccccc1)C(=O)Cn1nc(CCc2ccccc2)oc1=O [example 3(17), 2(S)-N-[3(S)-1-(5-oxo-2-(2-phenylethyl)-1,3,4-oxadiazolin-4-yl)-2-oxo-5-methyl-3-hexyl]-2-benzyloxycarbonylamino-4-methylpentanamide] |
| 36 nM |  | CC(C)C[C@H](NC(=O)[C@H](CC(C)C)NC(=O)OCc1ccccc1)C(=O)Cn1c(-c2ccc(F)cc2)noc1=O [example 3(7), 2(S)-N-[3(S)-1-(5-oxo-3-(4-fluorophenyl)-1,2,4-oxadiazolin-4-yl)-2-oxo-5-methyl-3-hexyl]-2-benzyloxycarbonylamino-4-methylpentanamide] |

Source: patent US7390804B2, “N-containing five-membered ring compounds and pharmaceutical agents comprising the same as active ingredient” (Ono Pharmaceutical Co., Ltd., priority 2000, dated 2008)
